ChEMBL document CHEMBL1128636, “()-1-Azabicyclo[2.2.1]heptan-3-one, O-(3-methyl-5-aryl-2-penten-4-ynyl) oximes: Potent muscarinic agonists” (Bioorg Med Chem Lett, 1995)
Calls of active or inactive are those of the source. The calls are words filed in the database; no cut-off is given here.

How the values were obtained:
[1] = target: T1, Muscarinic acetylcholine receptor M1 (Homo sapiens) (UniProt P11229); conditions: NIH3T3
T1 sequence (whole entry): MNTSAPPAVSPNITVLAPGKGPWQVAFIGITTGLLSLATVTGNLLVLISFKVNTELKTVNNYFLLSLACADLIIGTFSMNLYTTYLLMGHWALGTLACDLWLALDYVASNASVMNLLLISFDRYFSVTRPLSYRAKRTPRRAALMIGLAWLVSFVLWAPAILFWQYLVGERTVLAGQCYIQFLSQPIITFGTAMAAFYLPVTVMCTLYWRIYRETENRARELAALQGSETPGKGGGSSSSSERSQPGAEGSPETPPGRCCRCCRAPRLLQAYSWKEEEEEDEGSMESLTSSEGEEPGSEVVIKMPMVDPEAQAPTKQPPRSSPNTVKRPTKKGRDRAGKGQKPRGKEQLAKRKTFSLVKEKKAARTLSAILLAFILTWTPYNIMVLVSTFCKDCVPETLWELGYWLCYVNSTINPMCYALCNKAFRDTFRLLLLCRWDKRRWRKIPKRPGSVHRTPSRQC
Description: Agonistic efficacy in human m1 muscarinic receptor expressed with the marker gene beta-galactosidase in NIH 3T3 cells.

[2] = target: Muscarinic acetylcholine receptor
Description: Binding affinity against muscarinic receptor using radioligand [3H]quinuclidinyl benzilate (QNB) binding assay in membrane preparations of rat neocortex.

[3] = target: Muscarinic acetylcholine receptor; remark: listed apart in the source
Description: Binding affinity against muscarinic receptor using radioligand [3H]cis-methyldioxolane (CMD) binding assay in membrane preparations of rat neocortex.

[4] = target: T2, Muscarinic acetylcholine receptor M2 (Homo sapiens) (UniProt P08172); conditions: NIH3T3
T2 sequence (whole entry): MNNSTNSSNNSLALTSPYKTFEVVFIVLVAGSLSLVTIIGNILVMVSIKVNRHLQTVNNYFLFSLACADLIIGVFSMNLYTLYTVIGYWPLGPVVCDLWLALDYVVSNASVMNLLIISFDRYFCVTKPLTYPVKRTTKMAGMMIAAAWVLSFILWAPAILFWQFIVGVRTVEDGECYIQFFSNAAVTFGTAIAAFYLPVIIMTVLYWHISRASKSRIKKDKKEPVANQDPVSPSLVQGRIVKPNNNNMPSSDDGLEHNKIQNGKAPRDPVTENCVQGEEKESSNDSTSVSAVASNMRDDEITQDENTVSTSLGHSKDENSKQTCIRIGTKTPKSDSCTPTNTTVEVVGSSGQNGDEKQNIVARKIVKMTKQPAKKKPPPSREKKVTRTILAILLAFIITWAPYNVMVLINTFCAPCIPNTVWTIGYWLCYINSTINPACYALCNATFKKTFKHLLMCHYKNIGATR
Description: Agonistic efficacy in human m2 muscarinic receptor expressed with the marker gene beta-galactosidase in NIH 3T3 cells.

[5] = target: T3, Muscarinic acetylcholine receptor (Rattus norvegicus) (UniProt P08482+P08483+P08485+P08911+P10980); format: tissue-based; conditions: Neocortex; 100 nM
[6] = target: T3, Muscarinic acetylcholine receptor (Rattus norvegicus); format: tissue-based; conditions: Neocortex; 1 uM
[7] = target: T1, Muscarinic acetylcholine receptor M1 (Homo sapiens); test: Agonistic efficacy in human m1 muscarinic receptor which was expressed with the marker gene beta-galactosidase in NIH 3T3 cells; No data; format: functional, cell-based; conditions: NIH3T3
[8] = target: Muscarinic acetylcholine receptor; format: tissue-based, Neocortex

| Compound | ED50 [1] | IC50 [2] | IC50 [3] | ED50 [4] | further results |
| --- | --- | --- | --- | --- | --- |
| COc1ccc(C#C/C(C)=C\CO/N=C2/CN3CCC2C3)cc1 (configuration not stated) | 8.6 nM | 1992 nM | 17 nM | 10.7 nM | – |
| C/C(C#Cc1ccc(C)cc1)=C\CO/N=C1/CN2CCC1C2 (configuration not stated) | – | – | – | – | inhibition [5]: 29%; inhibition [6]: 31% |
| C/C(C#Cc1ccc(F)cc1)=C\CO/N=C1\CN2CCC1C2 (configuration not stated) | 31.5 nM | – | – | – | – |
| C#C/C(C)=C/CO/N=C1/CN2CCC1C2 (configuration not stated) | – | 19308 nM | 21 nM | – | – |
| C/C(C#Cc1ccc(F)cc1)=C/CO/N=C1/CN2CCC1C2 (configuration not stated) | 48 nM | – | – | – | – |
| C/C(C#Cc1ccc(Cl)c(Cl)c1)=C\CO/N=C1\CN2CCC1C2 (configuration not stated) | 398 nM | 171 nM | 0.8 nM | 940 nM | – |
| C/C(C#Cc1ccc(Cl)cc1)=C\CO/N=C1\CN2CCC1C2 (configuration not stated) | – | 439 nM | 27.12 nM | – | – |
| COc1ccc(C#C/C(C)=C\CO/N=C2/CN3CCC2C3)cc1OC (configuration not stated) | 162 nM | 8547 nM | 4.6 nM | 0.9 nM | – |
| C[N+](C)(C)CCOC(N)=O | – | – | – | 22.8 nM | – |
| C/C(C#Cc1ccccc1)=C\CO/N=C1\CN2CCC1C2 (configuration not stated) | – | 1587 nM | 12.4 nM | – | – |
| C#C/C(C)=C\CO/N=C1/CN2CCC1C2 (configuration not stated) | 30 nM | 4234 nM | 12 nM | 45 nM | – |
| C/C(C#Cc1ccc(C)cc1)=C\CO/N=C1\CN2CCC1C2 (configuration not stated) | – | 681 nM | 22.16 nM | – | – |
| C/C(C#Cc1ccccc1)=C/CO/N=C1\CN2CCC1C2 (configuration not stated) | – | 44 nM | 0.15 nM | – | – |
| C/C(C#Cc1ccc(C)cc1)=C/CO/N=C1\CN2CCC1C2 (configuration not stated) | 10.5 nM | 64 nM | 0.57 nM | 10.7 nM | – |
| C/C(C#Cc1cccs1)=C\CO/N=C1\CN2CCC1C2 (configuration not stated) | 0.4 nM | 968 nM | 4.96 nM | 24 nM | – |
| C/C(C#Cc1cccs1)=C\CO/N=C1/CN2CCC1C2 (configuration not stated) | – | 5593 nM | 80.47 nM | – | – |
| COc1cccc(C#C/C(C)=C/CO/N=C2\CN3CCC2C3)c1 (configuration not stated) | 93.2 nM | – | – | – | – |
| COc1ccc(C#C/C(C)=C/CO/N=C2/CN3CCC2C3)cc1 (configuration not stated) | – | – | – | – | inhibition [5]: 33%; inhibition [6]: 19% |
| COc1ccc(C#C/C(C)=C/CO/N=C2\CN3CCC2C3)cc1 (configuration not stated) | – | 1413 nM | 12 nM | – | – |
| COc1cccc(C#C/C(C)=C/CO/N=C2/CN3CCC2C3)c1 (configuration not stated) | 264 nM | – | – | – | – |

| Compound | ED50 [1] | IC50 [2] | IC50 [3] | ED50 [4] | further results |
| --- | --- | --- | --- | --- | --- |
| C/C(C#Cc1ccc(Cl)cc1)=C/CO/N=C1\CN2CCC1C2 (configuration not stated) | – | – | – | – | ED50 [7]: inactive |
| C/C(C#Cc1ccc(Cl)c(Cl)c1)=C/CO/N=C1\CN2CCC1C2 (configuration not stated) | – | – | – | – | inhibition [5]: 46%; inhibition [6]: 77% |
| COc1ccc(C#C/C(C)=C/CO/N=C2\CN3CCC2C3)cc1OC (configuration not stated) | 74 nM | 2380 nM | 5.37 nM | 1.8 nM | – |
| C/C(C#Cc1ccc(F)cc1)=C\CO/N=C1/CN2CCC1C2 (configuration not stated) | 156 nM | – | – | – | – |
| C/C(C#Cc1ccc(Cl)c(Cl)c1)=C/CO/N=C1/CN2CCC1C2 (configuration not stated) | – | – | – | – | inhibition [5]: 14%; inhibition [6]: 51% |
| C/C(C#Cc1cccs1)=C/CO/N=C1/CN2CCC1C2 (configuration not stated) | 11.6 nM | 608 nM | 4.1 nM | 2.5 nM | – |
| C/C(C#Cc1ccc(F)cc1)=C/CO/N=C1\CN2CCC1C2 (configuration not stated) | 20.9 nM | – | – | – | – |
| C/C(C#Cc1ccccc1)=C\CO/N=C1/CN2CCC1C2 (configuration not stated) | – | – | – | – | inhibition [5]: 31%; inhibition [6]: 18% |
| COc1ccc(C#C/C(C)=C\CO/N=C2\CN3CCC2C3)cc1 (configuration not stated) | 8.5 nM | – | 0.1 nM | 8.9 nM | IC50 [8]: 60 nM |
| C#C/C(C)=C/CO/N=C1\CN2CCC1C2 (configuration not stated) | 85 nM | – | 4 nM | 11 nM | – |
| COc1cccc(C#C/C(C)=C\CO/N=C2\CN3CCC2C3)c1 (configuration not stated) | 51.1 nM | – | – | – | – |
| C#C/C(C)=C\CO/N=C1\CN2CCC1C2 (configuration not stated) | 12 nM | – | – | 23.7 nM | – |
| C/C(C#Cc1ccc(C)cc1)=C/CO/N=C1/CN2CCC1C2 (configuration not stated) | 83.3 nM | 383 nM | 5.02 nM | 4.4 nM | – |
| C/C(C#Cc1ccc(Cl)cc1)=C\CO/N=C1/CN2CCC1C2 (configuration not stated) | – | – | – | – | inhibition [5]: 57%; inhibition [6]: 52% |
| C/C(C#Cc1cccs1)=C/CO/N=C1\CN2CCC1C2 (configuration not stated) | 6.2 nM | 21 nM | 0.02 nM | 2.3 nM | – |
| COc1ccc(C#C/C(C)=C\CO/N=C2\CN3CCC2C3)cc1OC (configuration not stated) | 55 nM | 1245 nM | 1.38 nM | – | – |
| C/C(C#Cc1ccccc1)=C/CO/N=C1/CN2CCC1C2 (configuration not stated) | 120 nM | 181 nM | 1.07 nM | 4.2 nM | – |
| C/C(C#Cc1ccc(Cl)c(Cl)c1)=C\CO/N=C1/CN2CCC1C2 (configuration not stated) | – | – | – | – | inhibition [5]: 49%; inhibition [6]: 39% |
| C/C(C#Cc1ccc(Cl)cc1)=C/CO/N=C1/CN2CCC1C2 (configuration not stated) | 29.1 nM | 81 nM | 0.45 nM | 2.8 nM | – |
